melting point: 223 to 226 °C
SMILES: O=C(O)c1ccc(-n2nc(-c3cccc(O)c3O)nc2-c2ccccc2O)cc1 [Example 1, 4-[3-(2,3-Dihydroxy-phenyl)-5-(2-hydroxy-phenyl)-[1,2,4]triazol-1-yl]benzoic Acid]

Source: patent publication US20050080120A1, “4-[3,5-bis-(2-hydroxy-phenyl)-[1,2,4]triazol-1-yl]-benzoic acid derivatives for treating an excess of metal in the body” (priority 2001, published 2005)
